Reference: patent US20050032807A1, “Methods of treating inflammatory diseases with ammonium salts of ornitihine derivatives” (priority 2003, published 2005)

Columns and labels:
[1] = lyophilization of the dilute ammonium hydroxide solution to the ammonium salt
[2] = molecular target: T1, dihydrofolate reductase (DHFR) (Mus musculus, UniProt P00375); details: Rosowsky et al., J. Med. Chem. 29, 655-660 (1986); cited from earlier work
T1 sequence (P00375 1-187): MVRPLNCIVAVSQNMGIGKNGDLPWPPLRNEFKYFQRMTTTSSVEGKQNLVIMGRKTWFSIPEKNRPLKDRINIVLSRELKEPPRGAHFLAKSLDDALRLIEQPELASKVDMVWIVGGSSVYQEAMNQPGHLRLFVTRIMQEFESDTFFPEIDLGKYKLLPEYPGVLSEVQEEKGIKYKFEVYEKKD

[3] = tested on: folylpolyglutamate synthetase (FPGS); details: Rosowsky et al., J. Med. Chem. 29, 655-660 (1986); cited from earlier work
cell growth in culture = details: Rosowsky et al., J. Med. Chem. 29, 655-660 (1986); cited from earlier work

SMILES | product decomposition [1] | inhibition of dihydrofolate reductase (DHFR) [2] | inhibition of folylpolyglutamate synthetase (FPGS) [3] | inhibition of cell growth in culture (cell growth in culture)
N.N.Nc1nc(N)c2nc(CNc3ccc(C(=O)N[C@@H](CCCNC(=O)c4ccccc4C(=O)O)C(=O)O)cc3)cnc2n1 [compound 8, N^α-(4-Amino-4-deoxypteroyl)N^δ-hemiphthaloyl-L-ornithine ammonium salt] | minimal | – | – | –
NCCC[C@H](NC(=O)c1ccc(NCc2cnc3nc(N)nc(N)c3n2)cc1)C(=O)O [APA-L-Orn, N^α-(4-amino-4-deoxypteroyl)-L-ornithine] | – | potent inhibitor | potent inhibitor | relatively inactive
